In patent US20070173462A1, “Treatment of diseases associated with the use of antibiotics” (Optimer Pharmaceuticals, Inc., priority 2004, published 2007):
Where two headings read alike, the source gives them in different places.

How the values were obtained:
Format in all cases: cell-based
Enterococcus sp. = test: MIC, clinical isolates (Table 3)
Description: (§1) Compound I was additionally tested against anaerobic clinical isolates and against aerobic bacteria. […] The compound was also active against clinical strains of Staphylococcus sp. and Enterococcus sp.

Staphylococcus sp. = test: MIC, clinical isolates (Table 3)
Description: as §1

Propionibacterium sp. = test: MIC, clinical isolates (Table 3); conditions: n=16
Description: as §1

Enterobacteiaceae = test: MIC, clinical isolates (Table 3); conditions: n=28
Description: as §1

Pseudomonas aeruginosa = test: microbe, parasite or virus in culture; conditions: clinical gastrointestinal isolates, n=10
Veillonella sp. = test: microbe, parasite or virus in culture; conditions: clinical gastrointestinal isolates, n=10
C. difficile [1] = test: MIC via agar dilution, 110 genetically distinct clinical isolates of C. difficile
Klebsiella sp. = test: microbe, parasite or virus in culture; conditions: clinical gastrointestinal isolates, n=10
C. bolteae = test: microbe, parasite or virus in culture; conditions: Enterocloster bolteae; clinical isolates, n=6
C. clostridioforme = test: organism not typed; conditions: clinical isolates, n=5
C. innocuum = test: microbe, parasite or virus in culture; conditions: [Clostridium] innocuum; clinical isolates, n=9
[2] = system: Streptococcus milleri group; test: microbe, parasite or virus in culture; conditions: clinical gastrointestinal isolates, n=14
C. difficile [3] = test: microbe, parasite or virus in culture; conditions: clinical isolates, n=23
[4] = Clostridioides difficile, 110 clinical isolates, agar dilution

CCc1c(Cl)c(O)c(Cl)c(O)c1C(=O)O[C@H]1[C@H](O)[C@H](OC)[C@H](OC/C2=C\C=C\C[C@H](O)/C(C)=C/[C@H](CC)C(O[C@@H]3OC(C)(C)[C@@H](OC(=O)C(C)C)[C@H](O)[C@@H]3O)/C(C)=C/C(C)=C/C[C@@H](C(C)O)OC2=O)O[C@@H]1C (some centres unmarked) [Compound I]
0.08 µg/mL: MIC (C. difficile [1]; Clostridioides difficile, 110 clinical isolates, agar dilution, read-out: Geometric Mean (MIC))
0.03 µg/mL: MIC (C. difficile [1]; Clostridioides difficile, isolate ORG ID 61 5930, read-out: MIC) | MIC (C. difficile [1]; Clostridioides difficile, isolate ORG ID 68 6368, read-out: MIC) | MIC (C. difficile [1]; Clostridioides difficile, isolate ORG ID 86 6333, read-out: MIC) | MIC (C. difficile [1]; Clostridioides difficile, isolate ORG ID 104 6060, read-out: MIC) | MIC (C. difficile [1]; Clostridioides difficile, isolate ORG ID 105 6071, read-out: MIC) | MIC (C. difficile [1]; Clostridioides difficile, isolate ORG ID 106 6078, read-out: MIC) | MIC (C. difficile [1]; Clostridioides difficile, isolate ORG ID 111 6279, read-out: MIC) | MIC (C. difficile [1]; Clostridioides difficile, isolate ORG ID 120 6057, read-out: MIC) | MIC (C. difficile [1]; Clostridioides difficile, isolate ORG ID D1 1360, read-out: MIC) | MIC (C. difficile [1]; Clostridioides difficile, isolate ORG ID J7 4224, read-out: MIC) | MIC (C. difficile [1]; Clostridioides difficile, isolate ORG ID Z1 3036, read-out: MIC)
0.015 µg/mL: MIC (C. difficile [1]; Clostridioides difficile, isolate ORG ID 66 6366, read-out: MIC) | MIC (C. difficile [1]; Clostridioides difficile, isolate ORG ID 78 6392, read-out: MIC) | MIC (C. difficile [1]; Clostridioides difficile, isolate ORG ID 94 6343, read-out: MIC) | MIC (C. difficile [1]; Clostridioides difficile, isolate ORG ID 101 6354, read-out: MIC) | MIC (C. difficile [1]; Clostridioides difficile, isolate ORG ID 109 6274, read-out: MIC) | MIC (C. difficile [1]; Clostridioides difficile, isolate ORG ID 115 5985, read-out: MIC) | MIC (C. difficile [1]; Clostridioides difficile, isolate ORG ID AA2 4380, read-out: MIC) | MIC (C. difficile [1]; Clostridioides difficile, isolate ORG ID R6 6015, read-out: MIC)
4 µg/mL: MIC50 (Enterococcus sp.; Enterococcus, clinical isolates, n=8) | MIC50 (Propionibacterium sp.) | MIC50 (C. clostridioforme)
0.015 to 0.25 µg/mL: Range (MIC) (C. difficile [1]; 110 clinical isolates, agar dilution)
0.12 µg/mL: MIC50 (C. difficile [3]; Clostridioides difficile)
0.06 µg/mL: MIC (C. difficile [1]; Clostridioides difficile, isolate ORG ID 65 5967, read-out: MIC) | MIC (C. difficile [1]; Clostridioides difficile, isolate ORG ID 77 6390, read-out: MIC) | MIC (C. difficile [1]; Clostridioides difficile, isolate ORG ID 82 6329, read-out: MIC) | MIC (C. difficile [1]; Clostridioides difficile, isolate ORG ID 83 6330, read-out: MIC) | MIC (C. difficile [1]; Clostridioides difficile, isolate ORG ID 85 6332, read-out: MIC) | MIC (C. difficile [1]; Clostridioides difficile, isolate ORG ID 96 6348, read-out: MIC) | MIC (C. difficile [1]; Clostridioides difficile, isolate ORG ID 103 6068, read-out: MIC) | MIC (C. difficile [1]; Clostridioides difficile, isolate ORG ID 107 6079, read-out: MIC) | MIC (C. difficile [1]; Clostridioides difficile, isolate ORG ID 112 6280, read-out: MIC) | MIC (C. difficile [1]; Clostridioides difficile, isolate ORG ID 113 6304, read-out: MIC) | MIC (C. difficile [1]; Clostridioides difficile, isolate ORG ID 114 386, read-out: MIC) | MIC (C. difficile [1]; Clostridioides difficile, isolate ORG ID 116 5702, read-out: MIC) | MIC (C. difficile [1]; Clostridioides difficile, isolate ORG ID 117 6026, read-out: MIC) | MIC (C. difficile [1]; Clostridioides difficile, isolate ORG ID 121 6072, read-out: MIC) | MIC (C. difficile [1]; Clostridioides difficile, isolate ORG ID AB2 1725, read-out: MIC) | MIC (C. difficile [1]; Clostridioides difficile, isolate ORG ID AC1 1546, read-out: MIC) | MIC (C. difficile [1]; Clostridioides difficile, isolate ORG ID AJ1 1557, read-out: MIC) | MIC (C. difficile [1]; Clostridioides difficile, isolate ORG ID AL1 1753, read-out: MIC) | MIC (C. difficile [1]; Clostridioides difficile, isolate ORG ID B1 832, read-out: MIC) | MIC (C. difficile [1]; Clostridioides difficile, isolate ORG ID BH1 4506, read-out: MIC) | MIC (C. difficile [1]; Clostridioides difficile, isolate ORG ID BM1 1453, read-out: MIC) | MIC (C. difficile [1]; Clostridioides difficile, isolate ORG ID BR1 1321, read-out: MIC) | MIC (C. difficile [1]; Clostridioides difficile, isolate ORG ID BT1 706, read-out: MIC) | MIC (C. difficile [1]; Clostridioides difficile, isolate ORG ID E1 816, read-out: MIC) | MIC (C. difficile [1]; Clostridioides difficile, isolate ORG ID J1 5971, read-out: MIC) | MIC (C. difficile [1]; Clostridioides difficile, isolate ORG ID J9 4478, read-out: MIC) | MIC (C. difficile [1]; Clostridioides difficile, isolate ORG ID O1 1861, read-out: MIC) | MIC (C. difficile [1]; Clostridioides difficile, isolate ORG ID Y1 5639, read-out: MIC) | MIC (C. difficile [1]; Clostridioides difficile, isolate ORG ID Y2 1459, read-out: MIC)
16 to 64 µg/mL: Range (MIC) [2]
> 64 µg/mL: MIC50 (Enterobacteiaceae) | Range (MIC) (Enterobacteiaceae)
0.016 µg/mL: MIC (C. difficile [1]; Clostridioides difficile, isolate ORG ID 102 6355, read-out: MIC)
0.062 to 2 µg/mL: Range (MIC) (C. difficile [3])
> 1020 µg/mL: MIC50 (C. bolteae) | MIC90 (C. bolteae) | MIC90 (C. clostridioforme) | MIC50 (C. innocuum) | MIC90 (C. innocuum)
16 to 128 µg/mL: Range (MIC) (Veillonella sp.)
0.125 µg/mL: MIC (C. difficile [1]; Clostridioides difficile) | MIC50 (C. difficile [1]; [4]) | MIC90 (C. difficile [1]; [4]) | MIC (C. difficile [1]; isolate ORG ID 64 5940) | MIC (C. difficile [1]; isolate ORG ID 67 6367) | MIC (C. difficile [1]; isolate ORG ID 70 6376) | MIC (C. difficile [1]; isolate ORG ID 71 6379) | MIC (C. difficile [1]; isolate ORG ID 72 6380) | MIC (C. difficile [1]; isolate ORG ID 75 6388) | MIC (C. difficile [1]; isolate ORG ID 76 6389) | MIC (C. difficile [1]; isolate ORG ID 80 6327) | MIC (C. difficile [1]; isolate ORG ID 81 6328) | MIC (C. difficile [1]; isolate ORG ID 84 6331) | MIC (C. difficile [1]; isolate ORG ID 87 6334) | MIC (C. difficile [1]; isolate ORG ID 88 6335) | MIC (C. difficile [1]; isolate ORG ID 90 6338) | MIC (C. difficile [1]; isolate ORG ID 91 6339) | MIC (C. difficile [1]; isolate ORG ID 93 6341) | MIC (C. difficile [1]; isolate ORG ID 95 6347) | MIC (C. difficile [1]; isolate ORG ID 98 6350) | MIC (C. difficile [1]; isolate ORG ID 100 6353) | MIC (C. difficile [1]; isolate ORG ID A1 1535) | MIC (C. difficile [1]; isolate ORG ID AF1 1808) | MIC (C. difficile [1]; isolate ORG ID AG1 3044) | MIC (C. difficile [1]; isolate ORG ID AH1 3430) | MIC (C. difficile [1]; isolate ORG ID AN1 464) | MIC (C. difficile [1]; isolate ORG ID AO1 287) | MIC (C. difficile [1]; isolate ORG ID AS1 4099) | MIC (C. difficile [1]; isolate ORG ID AT1 1216) | MIC (C. difficile [1]; isolate ORG ID AW1 4501) | MIC (C. difficile [1]; isolate ORG ID BE1 4307) | MIC (C. difficile [1]; isolate ORG ID BI1 1675) | MIC (C. difficile [1]; isolate ORG ID BK1 4291) | MIC (C. difficile [1]; isolate ORG ID BL1 716) | MIC (C. difficile [1]; isolate ORG ID BN1 1322) | MIC (C. difficile [1]; isolate ORG ID BV1 1183) | MIC (C. difficile [1]; isolate ORG ID BW1 3130) | MIC (C. difficile [1]; isolate ORG ID BX1 4271) | MIC (C. difficile [1]; isolate ORG ID CF1 5922) | MIC (C. difficile [1]; isolate ORG ID CG1 1566) | MIC (C. difficile [1]; isolate ORG ID CJ1 893) | MIC (C. difficile [1]; isolate ORG ID CP1 5491) | MIC (C. difficile [1]; isolate ORG ID G1 1077) | MIC (C. difficile [1]; isolate ORG ID I1 1389) | MIC (C. difficile [1]; isolate ORG ID K1 4305) | MIC (C. difficile [1]; isolate ORG ID K14 5780) | MIC (C. difficile [1]; isolate ORG ID L1 1423) | MIC (C. difficile [1]; isolate ORG ID N1 471) | MIC (C. difficile [1]; isolate ORG ID R1 397) | MIC (C. difficile [1]; isolate ORG ID V1 1521) | MIC (C. difficile [1]; isolate ORG ID W1 3931) | MIC (C. difficile [1]; isolate ORG ID X1 1890)
0.25 µg/mL: MIC (C. difficile [1]; Clostridioides difficile, isolate ORG ID 63 6029, read-out: MIC) | MIC (C. difficile [1]; Clostridioides difficile, isolate ORG ID 69 6370, read-out: MIC) | MIC (C. difficile [1]; Clostridioides difficile, isolate ORG ID 73 6382, read-out: MIC) | MIC (C. difficile [1]; Clostridioides difficile, isolate ORG ID 89 6336, read-out: MIC) | MIC (C. difficile [1]; Clostridioides difficile, isolate ORG ID 97 6349, read-out: MIC) | MIC (C. difficile [1]; Clostridioides difficile, isolate ORG ID 122 6111, read-out: MIC) | MIC (C. difficile [1]; Clostridioides difficile, isolate ORG ID AV1 941, read-out: MIC) | MIC (C. difficile [1]; Clostridioides difficile, isolate ORG ID CB1 1584, read-out: MIC) | MIC (C. difficile [1]; Clostridioides difficile, isolate ORG ID CL1 3851, read-out: MIC) | MIC (C. difficile [1]; Clostridioides difficile, isolate ORG ID CN1 667, read-out: MIC) | MIC (C. difficile [1]; Clostridioides difficile, isolate ORG ID CO1 4652, read-out: MIC) | MIC90 (C. difficile [3]; Clostridioides difficile)
128 µg/mL: MIC90 (Veillonella sp.; Veillonella)
>256 µg/mL: Range (MIC) (Klebsiella sp.)
> 256 µg/mL: MIC50 (Pseudomonas aeruginosa) | MIC90 (Pseudomonas aeruginosa) | MIC50 (Klebsiella sp.; Klebsiella) | MIC90 (Klebsiella sp.; Klebsiella)
active: activity (in words) (Enterococcus sp.; clinical strains) | activity (in words) (Staphylococcus sp.; clinical strains)
1-8: Range (MIC) (Enterococcus sp.; clinical isolates, n=8, in µg/mL) | Range (MIC) (Staphylococcus sp.; clinical isolates, n=10, in µg/mL)
2 µg/mL: MIC50 (Staphylococcus sp.; Staphylococcus, clinical isolates, n=10)
32 µg/mL: MIC50 (Veillonella sp.; Veillonella) | MIC50 ([2]; Streptococcus milleri) | MIC90 ([2]; Streptococcus milleri)
